# Test results: EPA's ToxRefDB 2
# Assays:
# dog [1] = settings: Chronic toxicity; beagle; Oral; Feed; dose end: 52 week; group: systemic; systemic / clinical chemistry / albumin / albumin + systemic / clinical chemistry / calcium / calcium + systemic / clinical chemistry / …
# mouse [2] = settings: Subchronic oral toxicity in rodents, cd1, Feed, dose end: 13 week, group: systemic
# rat [3] = settings: Prenatal developmental toxicity study, fischer, Oral, Gavage/Intubation, dose end: 15 GD
# rat [4] = settings: Subchronic oral toxicity in rodents, other, Feed, dose end: 13 week, group: systemic, systemic / clinical chemistry / urea nitrogen / urea
# rat [5] = settings: Subchronic oral toxicity in rodents, Feed, dose end: 13 week, group: systemic
# rabbit [6] = settings: Prenatal developmental toxicity study, new zealand white, Dermal, Topical, dose end: 18 GD
# rabbit [7] = settings: Prenatal developmental toxicity study, new zealand white, Oral, Capsule, dose end: 18 GD
# dog [8] = settings: Subchronic oral toxicity in nonrodent, beagle, Feed, dose end: 3 month, group: systemic, systemic / in life observation / body weight / body weight gain + systemic / in life observation / food consumption / food consumption
# dog [9] = settings: Chronic toxicity; beagle; Oral; Feed; dose end: 12 month; group: systemic; systemic / in life observation / body weight / body weight gain + systemic / in life observation / food consumption / food consumption + …
# rat [10] = settings: Subchronic oral toxicity in rodents, other, Feed, dose end: 90 day, group: systemic
# rat [11] = settings: Combined chronic toxicity/carcinogenicity, other, Oral, Feed, dose end: 24 month, group: systemic
# rat [12] = settings: Subchronic oral toxicity in rodents, wistar, Feed, dose end: 90 day, group: systemic
# mouse [13] = settings: Subchronic oral toxicity in rodents, other, Feed, dose end: 90 day, group: systemic
# rat [14] = settings: Prenatal developmental toxicity study, wistar, Oral, [Not Specified], dose end: 20 GD
# rabbit [15] = settings: Prenatal developmental toxicity study, Russian (Chbb:HM, SPF), Oral, Gavage/Intubation, dose end: 19 GD
# rat [16] = settings: Multigenerational reproductive toxicity study, other, Oral, Feed, dose end: 2 generation
# rat [17] = settings: Prenatal developmental toxicity study, other, Oral, Gavage/Intubation, dose end: 15 GD
# mouse [18] = settings: Carcinogenicity, other, Oral, Feed, dose end: 18 month, group: systemic
# rat [19] = settings: Subchronic oral toxicity in rodents, sprague dawley, Water, dose end: 90 day, group: systemic
# mouse [20] = settings: Carcinogenicity, b6c3f1, Oral, Water, dose end: 104 week, group: systemic
# rat [21] = settings: Prenatal developmental toxicity study, long evans, Oral, Gavage/Intubation, dose end: 15 GD
# rat [22] = settings: Sub-acute repeat dose toxicity; sprague dawley; Oral; Water; dose end: 14 day; group: systemic; systemic / in life observation / body weight / body weight + systemic / in life observation / food consumption / food consumption + systemic…
# [23] = systemic / in life observation / body weight / body weight
# [24] = systemic / in life observation / body weight / body weight + systemic / organ weight / liver / relative to body weight
# [25] = group: developmental, developmental / developmental malformation / bone / ossification sites + developmental / developmental malformation / bone / supernumerary
# [26] = group: maternal, systemic / in life observation / body weight / body weight
# [27] = systemic / in life observation / body weight / body weight + systemic / clinical chemistry / urea nitrogen / urea + systemic / urinalysis / …
# [28] = group: developmental, developmental / developmental malformation / bone / supernumerary + developmental / developmental malformation / bone / unossified + …
# [29] = group: maternal, systemic / in life observation / body weight / body weight gain
# [30] = group: developmental, developmental / developmental malformation / bone / supernumerary + developmental / developmental malformation / gallbladder / [other] + …
# [31] = group: maternal, reproductive / reproductive performance / aborted / aborted + reproductive / reproductive performance / postimplantation loss / …
# [32] = group: maternal, systemic / in life observation / body weight / body weight + systemic / in life observation / body weight / body weight gain + systemic / in…
# [33] = systemic / clinical chemistry / cholesterol / cholesterol + systemic / clinical chemistry / lipids / phospholipids
# [34] = systemic / pathology microscopic / liver / dilatation + systemic / clinical chemistry / urea nitrogen / urea + systemic / in life …
# [35] = systemic / clinical chemistry / calcium / calcium
# [36] = systemic / in life observation / body weight / body weight + systemic / in life observation / body weight / body weight gain + systemic / …
# [37] = systemic / pathology microscopic / liver / necrosis
# [38] = systemic / pathology microscopic / liver / necrosis + systemic / hematology / leukocyte (wbc) count differential / leukocyte (wbc) + …
# [39] = group: developmental, developmental / developmental malformation / bone / unossified
# [40] = group: developmental, developmental / developmental malformation / bone / unossified + developmental / developmental malformation / bone / incomplete ossification…
# [41] = group: maternal, systemic / in life observation / clinical signs / piloerection + systemic / in life observation / clinical signs / salivation + systemic / …
# [42] = group: developmental, developmental / developmental malformation / bone / full supernumerary
# [43] = group: offspring, systemic / in life observation / body weight / offspring (pup) weight
# [44] = group: parental, systemic / organ weight / kidney / relative to body weight
# [45] = group: developmental, developmental / developmental malformation / bone / incomplete ossification + developmental / developmental malformation / bone / unossified…
# [46] = systemic / pathology microscopic / pancreas / hyperplasia
# [47] = systemic / pathology microscopic / pancreas / hyperplasia + systemic / in life observation / body weight / body weight + systemic / in life …
# [48] = systemic / in life observation / water consumption / water consumption
# [49] = systemic / in life observation / water consumption / water consumption + systemic / in life observation / body weight / body weight + …
# [50] = systemic / pathology microscopic / liver / adenoma + systemic / pathology microscopic / liver / adenoma/carcinoma combined + systemic / …
# [51] = systemic / pathology microscopic / liver / focal cellular change
# [52] = group: developmental, developmental / developmental malformation / bone / [other] + developmental / developmental malformation / general / crown-rump length + …
# [53] = group: developmental, developmental / developmental malformation / general / crown-rump length + developmental / developmental malformation / all gross anomalies…
# [54] = group: maternal, reproductive / reproductive performance / implantations / implantations + reproductive / reproductive performance / postimplantation loss / …
# [55] = group: maternal, systemic / organ weight / kidney / absolute + systemic / organ weight / spleen / absolute
compound,measurement,setting,value
CCNc1nc(Cl)nc(NC(C)(C)C#N)n1 [Cyanazine],LEL,dog [1],3.02 mg/kg/day
same,LOAEL,dog [1],3.02 mg/kg/day
same,NEL,dog [1],0.72 mg/kg/day
same,NOAEL,dog [1],0.72 mg/kg/day
same,LOAEL,mouse [2]; [23],75 mg/kg/day
same,LEL,mouse [2]; [24],75 mg/kg/day
same,NEL,mouse [2]; [24],7.5 mg/kg/day
same,NOAEL,mouse [2]; [24],7.5 mg/kg/day
same,LEL,rat [3]; [25],5 mg/kg/day
same,LOAEL,rat [3]; [25],5 mg/kg/day
same,NEL,rat [3]; [25],< 5 mg/kg/day
same,NOAEL,rat [3]; [25],< 5 mg/kg/day
same,LEL,rat [3]; [26],5 mg/kg/day
same,LOAEL,rat [3]; [26],5 mg/kg/day
same,NEL,rat [3]; [26],< 5 mg/kg/day
same,NOAEL,rat [3]; [26],< 5 mg/kg/day
same,LEL,rat [4],0.075 mg/kg/day
same,LOAEL,rat [4],0.075 mg/kg/day
same,NEL,rat [4],< 0.075 mg/kg/day
same,NOAEL,rat [4],< 0.075 mg/kg/day
same,LOAEL,rat [5]; [23],0.005 mg/kg/day
same,NOAEL,rat [5]; [23],< 0.005 mg/kg/day
same,LEL,rat [5]; [27],0.005 mg/kg/day
same,NEL,rat [5]; [27],< 0.005 mg/kg/day
same,LOAEL,"rabbit [6]; group: developmental, developmental / developmental malformation / bone / supernumerary + developmental / developmental malformation / bone / unossified",955 mg/kg/day
same,NEL,rabbit [6]; [28],286 mg/kg/day
same,NOAEL,rabbit [6]; [28],573 mg/kg/day
same,LEL,"rabbit [6]; group: developmental, systemic / in life observation / body weight / fetal weight",573 mg/kg/day
same,LEL,rabbit [6]; [29],96 mg/kg/day
same,LOAEL,rabbit [6]; [29],96 mg/kg/day
same,NEL,rabbit [6]; [29],< 96 mg/kg/day
same,NOAEL,rabbit [6]; [29],< 96 mg/kg/day
same,LOAEL,"rabbit [7]; group: developmental, developmental / developmental malformation / bone / absent + developmental / developmental malformation / bone / supernumerary",2 mg/kg/day
same,NOAEL,"rabbit [7]; group: developmental, developmental / developmental malformation / bone / absent + developmental / developmental malformation / bone / supernumerary + …",1 mg/kg/day
same,LEL,rabbit [7]; [30],1 mg/kg/day
same,NEL,rabbit [7]; [30],< 1 mg/kg/day
same,LOAEL,rabbit [7]; [31],2 mg/kg/day
same,NOAEL,rabbit [7]; [31],1 mg/kg/day
same,LEL,rabbit [7]; [32],1 mg/kg/day
same,NEL,rabbit [7]; [32],< 1 mg/kg/day
Cc1cc(C2CC2)nc(Nc2ccccc2)n1 [Cyprodinil],LEL,dog [8],560 mg/kg/day
same,LOAEL,dog [8],560 mg/kg/day
same,NEL,dog [8],210 mg/kg/day
same,NOAEL,dog [8],210 mg/kg/day
same,LEL,dog [9],446 mg/kg/day
same,LOAEL,dog [9],446 mg/kg/day
same,NEL,dog [9],68 mg/kg/day
same,NOAEL,dog [9],68 mg/kg/day
same,LEL,rat [10]; [33],3.24 mg/kg/day
same,NEL,rat [10]; [33],< 3.24 mg/kg/day
same,LOAEL,rat [10]; systemic / pathology microscopic / kidney / lesion(s) (nos),18.9 mg/kg/day
same,NOAEL,rat [10]; systemic / pathology microscopic / kidney / lesion(s) (nos) + systemic / clinical chemistry / albumin / albumin + systemic / clinical …,3.14 mg/kg/day
same,LOAEL,rat [11]; systemic / pathology microscopic / liver / dilatation,35.6 mg/kg/day
same,LEL,rat [11]; systemic / pathology microscopic / liver / dilatation + systemic / clinical chemistry / urea nitrogen / urea,35.6 mg/kg/day
same,NEL,rat [11]; [34],2.7 mg/kg/day
same,NOAEL,rat [11]; [34],2.7 mg/kg/day
same,LEL,rat [12]; [35],3.52 mg/kg/day
same,NEL,rat [12]; [35],< 3.52 mg/kg/day
same,LOAEL,rat [12]; [36],131 mg/kg/day
same,NOAEL,rat [12]; [36],17.8 mg/kg/day
same,LEL,mouse [13]; [37],257 mg/kg/day
same,LOAEL,mouse [13]; [37],257 mg/kg/day
same,NEL,mouse [13]; [38],73.3 mg/kg/day
same,NOAEL,mouse [13]; [38],73.3 mg/kg/day
same,LEL,rat [14]; [39],200 mg/kg/day
same,LOAEL,rat [14]; [39],200 mg/kg/day
same,NEL,rat [14]; [40],20 mg/kg/day
same,NOAEL,rat [14]; [40],20 mg/kg/day
same,LEL,rat [14]; [41],200 mg/kg/day
same,LOAEL,rat [14]; [41],200 mg/kg/day
same,NEL,rat [14]; [41],20 mg/kg/day
same,NOAEL,rat [14]; [41],20 mg/kg/day
same,LEL,rabbit [15]; [42],400 mg/kg/day
same,LOAEL,rabbit [15]; [42],400 mg/kg/day
same,NEL,rabbit [15]; [42],150 mg/kg/day
same,NOAEL,rabbit [15]; [42],150 mg/kg/day
same,LEL,rabbit [15]; [29],400 mg/kg/day
same,LOAEL,rabbit [15]; [29],400 mg/kg/day
same,NEL,rabbit [15]; [29],150 mg/kg/day
same,NOAEL,rabbit [15]; [29],150 mg/kg/day
same,LEL,rat [16]; [43],332 mg/kg/day
same,LOAEL,rat [16]; [43],332 mg/kg/day
same,NEL,rat [16]; [43],77.2 mg/kg/day
same,NOAEL,rat [16]; [43],77.2 mg/kg/day
same,LOAEL,"rat [16]; group: parental, systemic / in life observation / body weight / body weight",326 mg/kg/day
same,NOAEL,"rat [16]; group: parental, systemic / in life observation / body weight / body weight + systemic / organ weight / heart / relative to body weight + systemic / organ …",81.3 mg/kg/day
same,LEL,rat [16]; [44],0.7 mg/kg/day
same,NEL,rat [16]; [44],< 0.7 mg/kg/day
same,LEL,rat [17]; [45],1000 mg/kg/day
same,LOAEL,rat [17]; [45],1000 mg/kg/day
same,NEL,rat [17]; [45],200 mg/kg/day
same,NOAEL,rat [17]; [45],200 mg/kg/day
same,LEL,rat [17]; [32],1000 mg/kg/day
same,LOAEL,rat [17]; [32],1000 mg/kg/day
same,NEL,rat [17]; [32],200 mg/kg/day
same,NOAEL,rat [17]; [32],200 mg/kg/day
same,LEL,mouse [18]; [46],212 mg/kg/day
same,LOAEL,mouse [18]; [46],212 mg/kg/day
same,NEL,mouse [18]; [47],16.1 mg/kg/day
same,NOAEL,mouse [18]; [47],16.1 mg/kg/day
O=C(O)C(Cl)(Cl)Cl [Trichloroacetic acid],LEL,rat [19]; [48],4.1 mg/kg/day
same,NEL,rat [19]; [48],< 4.1 mg/kg/day
same,LOAEL,rat [19]; [49],> 355 mg/kg/day
same,NOAEL,rat [19]; [49],≥ 355 mg/kg/day
same,LOAEL,mouse [20]; [50],> 572 mg/kg/day
same,NOAEL,mouse [20]; [50],≥ 572 mg/kg/day
same,LEL,mouse [20]; [51],6 mg/kg/day
same,NEL,mouse [20]; [51],< 6 mg/kg/day
same,LOAEL,rat [21]; [52],> 1800 mg/kg/day
same,NOAEL,rat [21]; [52],≥ 1800 mg/kg/day
same,LEL,rat [21]; [53],330 mg/kg/day
same,NEL,rat [21]; [53],< 330 mg/kg/day
same,LOAEL,rat [21]; [54],> 1800 mg/kg/day
same,NOAEL,rat [21]; [54],≥ 1800 mg/kg/day
same,LEL,rat [21]; [55],330 mg/kg/day
same,NEL,rat [21]; [55],< 330 mg/kg/day
same,LEL,rat [22],119 mg/kg/day
same,LOAEL,rat [22],> 119 mg/kg/day
same,NEL,rat [22],31.6 mg/kg/day
same,NOAEL,rat [22],≥ 119 mg/kg/day
